Measurements: patent US11236378B2 (priority 2015, dated 2022)

Test system: HEK293T cells
Conditions: human

COc1ncc(-c2ccc3nc(N)n(-c4ccc(N5CCOCC5)cc4)c3c2)cc1S(=O)(=O)Nc1ccccc1F [A1, 5-(2-amino-1-(4-(4-morpholinyl)phenyl)-1H-benzimidazol-6-yl)-N-(2-fluorophenyl)-2-methoxy-3-pyridinesulfonamide]
concentration that killed most of the cells: ≥ 250 nM
